# Assay results: US5256700A (priority 1990, dated 1993)
# Assays:
# DNA = assay: Degradation of DNA caused by free radicals
# [1] = tested on: simple herpes of type 2 (HSV2); assay: Antiviral activity in vitro, test 1 (titer after 2 h incubation), HSV2; format: cell-based, HSV2 (cultured on VERO cell line); details: control 10^4
# [2] = tested on: simple herpes of type 1 (HSV1); assay: Antiviral activity in vitro, test 1 (titer after 2 h incubation), HSV1; format: cell-based, HSV1 (cultured on VERO cell line); details: control 10^5
# [3] = tested on: simple herpes of type 1 (HSV1); assay: Antiviral activity in vitro, test 2 (viral production after 4 days), HSV1; format: cell-based, HSV1 (cultured on VERO cell line); details: for Number of viral particles/0.025 ml supernatant, Test 2 HSV1: control 2 × 10^8
# [4] = Brieskorn and Domling 1969; cited from earlier work
# [5] = tested on: certain microorganisms responsible for dental caries and bad breath; details: CA 97, 84835q; cited from earlier work
# Chemical stability = format: physicochemical
# [6] = tested on: simple herpes of type 2 (HSV2); assay: Antiviral activity in vitro, test 2 (viral production after 4 days), HSV2; format: cell-based, HSV2 (cultured on VERO cell line); details: for Number of viral particles/0.025 ml supernatant, Test 2 HSV2: control 10^7
smiles,measurement,setting,value
CC(C)c1cc2c(c(O)c1O)[C@@]1(C(=O)O)CCCC(C)(C)[C@@H]1CC2 [Carnosic acid],effect on the degradation of DNA caused by the free radicals,DNA,inhibiting effect
same,"Number of viral particles/0.025 ml supernatant, Test 1 HSV2",[1]; 0.62 μg/ml,10 viral particles/0.025 ml supernatant
same,"Number of viral particles/0.025 ml supernatant, Test 1 HSV2",[1]; 1.25 μg/ml,10 viral particles/0.025 ml supernatant
same,"Number of viral particles/0.025 ml supernatant, Test 1 HSV2",[1]; 2.5 μg/ml,10 viral particles/0.025 ml supernatant
same,"Number of viral particles/0.025 ml supernatant, Test 1 HSV2",[1]; 5 μg/ml,10 viral particles/0.025 ml supernatant
same,"Number of viral particles/0.025 ml supernatant, Test 1 HSV1",[2]; 0.62 μg/ml,10^4 viral particles/0.025 ml supernatant
same,"Number of viral particles/0.025 ml supernatant, Test 1 HSV1",[2]; 1.25 μg/ml,10^3 viral particles/0.025 ml supernatant
same,"Number of viral particles/0.025 ml supernatant, Test 1 HSV1",[2]; 2.5 μg/ml,10 viral particles/0.025 ml supernatant
same,"Number of viral particles/0.025 ml supernatant, Test 1 HSV1",[2]; 5 μg/ml,10 viral particles/0.025 ml supernatant
same,"Number of viral particles/0.025 ml supernatant, Test 2 HSV1",[3]; 0.62 μg/ml,6 × 10^6 viral particles/0.025 ml supernatant
same,"Number of viral particles/0.025 ml supernatant, Test 2 HSV1",[3]; 1.25 μg/ml,2.5 × 10^6 viral particles/0.025 ml supernatant
same,"Number of viral particles/0.025 ml supernatant, Test 2 HSV1",[3]; 2.5 μg/ml,10^5 viral particles/0.025 ml supernatant
same,"Number of viral particles/0.025 ml supernatant, Test 2 HSV1",[3]; 5 μg/ml,10^2 viral particles/0.025 ml supernatant
same,production of HSV1,[3]; test 2,greatly affected
same,antioxidant activity,[4],powerful antioxidant
same,antibiotic activity against microorganisms responsible for dental caries and bad breath,[5],against certain microorganisms responsible for dental caries and bad breath
same,sensitivity to oxidation,Chemical stability; like any catechol-type molecule,highly sensitive to oxidation
same,"stability, purified and crystallized form",Chemical stability; purified and crystallized form,stable
same,cell toxicity,VERO cell line,absence of cell toxicity
same,"Number of viral particles/0.025 ml supernatant, Test 2 HSV2",[6]; 0.62 μg/ml,8 × 10^5 viral particles/0.025 ml supernatant
same,"Number of viral particles/0.025 ml supernatant, Test 2 HSV2",[6]; 1.25 μg/ml,10^5 viral particles/0.025 ml supernatant
same,"Number of viral particles/0.025 ml supernatant, Test 2 HSV2",[6]; 2.5 μg/ml,2 × 10^2 viral particles/0.025 ml supernatant
same,"Number of viral particles/0.025 ml supernatant, Test 2 HSV2",[6]; 5 μg/ml,< 10 viral particles/0.025 ml supernatant
same,production of HSV2,[6]; test 2,greatly affected
